# Like-named read-outs stand apart in the source and are kept apart here.
# Key:
# TLR8 = molecular target: T1, TLR8 (Homo sapiens, UniProt Q9NR97); test: In vitro human TLR8 binding reporter assay (HEK-Blue, NF-kB/AP1-inducible SEAP); format: cell-based; details: read-out: TLR8 Agonist EC50
# T1 construct: human HEK-Blue cells co-expressing a TLR7 or TLR8 gene
# T1 sequence (Q9NR97 27-1041): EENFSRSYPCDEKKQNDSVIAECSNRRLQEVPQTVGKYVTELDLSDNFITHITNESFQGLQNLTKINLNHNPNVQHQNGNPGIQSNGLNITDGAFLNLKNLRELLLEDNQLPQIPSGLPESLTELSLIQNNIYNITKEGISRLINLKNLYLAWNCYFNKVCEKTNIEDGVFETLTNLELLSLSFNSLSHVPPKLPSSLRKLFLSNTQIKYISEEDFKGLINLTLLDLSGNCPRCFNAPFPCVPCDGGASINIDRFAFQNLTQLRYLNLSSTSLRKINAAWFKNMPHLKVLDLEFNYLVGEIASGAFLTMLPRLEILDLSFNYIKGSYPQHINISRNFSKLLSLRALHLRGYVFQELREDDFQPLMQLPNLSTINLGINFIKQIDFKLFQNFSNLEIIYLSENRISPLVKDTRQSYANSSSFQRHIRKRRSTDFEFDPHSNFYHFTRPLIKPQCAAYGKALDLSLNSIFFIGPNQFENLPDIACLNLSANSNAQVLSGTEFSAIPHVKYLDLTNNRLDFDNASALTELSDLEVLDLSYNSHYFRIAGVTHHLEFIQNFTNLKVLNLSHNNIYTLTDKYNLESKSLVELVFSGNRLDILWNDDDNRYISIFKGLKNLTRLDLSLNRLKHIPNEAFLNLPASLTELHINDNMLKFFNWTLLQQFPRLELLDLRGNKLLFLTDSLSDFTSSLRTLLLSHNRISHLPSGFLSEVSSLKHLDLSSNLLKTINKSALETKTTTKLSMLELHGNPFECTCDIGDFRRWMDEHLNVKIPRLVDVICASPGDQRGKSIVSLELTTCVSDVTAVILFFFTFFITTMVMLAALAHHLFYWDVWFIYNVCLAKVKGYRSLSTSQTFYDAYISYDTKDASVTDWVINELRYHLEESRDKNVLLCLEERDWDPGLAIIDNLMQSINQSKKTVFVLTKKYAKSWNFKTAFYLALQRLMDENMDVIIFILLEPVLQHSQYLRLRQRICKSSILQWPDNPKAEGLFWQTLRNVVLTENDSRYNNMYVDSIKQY
# Summary of the method: (§1)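 HEK-Blue cells expressing human TLR7 or TLR8 with NF-kB/AP1-inducible SEAP reporter, plated 24 h, then compound-treated 18 h at 37° C, 5% CO2. EC50 normalized to 100% Ymax set by 50 μM reference standard.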
# THP-1 cells = test: Measurement of IL-1β production, hTRF protocol (second alternative procedure), THP-1 cells; format: cell-based, human
# Summary of the method: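 THP-1 cells differentiated overnight with 50 ng/ml PMA, then plated at 50,000 cells/well in RPMI with 2% FBS onto serial compound dilutions (top final concentration 10 μM) for 2 hours at 37° C. Supernatant IL-1β measured by hTRF (antibodies at 1:40, overnight at 4° C), read at 665/615 nm against a standard curve.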
# TLR7 = molecular target: T2, TLR7 (Homo sapiens, UniProt Q9NYK1); test: In vitro human TLR7 binding reporter assay (HEK-Blue, NF-kB/AP1-inducible SEAP); format: cell-based; details: read-out: TLR7 Agonist EC50
# T2 construct: human HEK-Blue cells co-expressing a TLR7 or TLR8 gene
# T2 sequence (Q9NYK1 27-1049): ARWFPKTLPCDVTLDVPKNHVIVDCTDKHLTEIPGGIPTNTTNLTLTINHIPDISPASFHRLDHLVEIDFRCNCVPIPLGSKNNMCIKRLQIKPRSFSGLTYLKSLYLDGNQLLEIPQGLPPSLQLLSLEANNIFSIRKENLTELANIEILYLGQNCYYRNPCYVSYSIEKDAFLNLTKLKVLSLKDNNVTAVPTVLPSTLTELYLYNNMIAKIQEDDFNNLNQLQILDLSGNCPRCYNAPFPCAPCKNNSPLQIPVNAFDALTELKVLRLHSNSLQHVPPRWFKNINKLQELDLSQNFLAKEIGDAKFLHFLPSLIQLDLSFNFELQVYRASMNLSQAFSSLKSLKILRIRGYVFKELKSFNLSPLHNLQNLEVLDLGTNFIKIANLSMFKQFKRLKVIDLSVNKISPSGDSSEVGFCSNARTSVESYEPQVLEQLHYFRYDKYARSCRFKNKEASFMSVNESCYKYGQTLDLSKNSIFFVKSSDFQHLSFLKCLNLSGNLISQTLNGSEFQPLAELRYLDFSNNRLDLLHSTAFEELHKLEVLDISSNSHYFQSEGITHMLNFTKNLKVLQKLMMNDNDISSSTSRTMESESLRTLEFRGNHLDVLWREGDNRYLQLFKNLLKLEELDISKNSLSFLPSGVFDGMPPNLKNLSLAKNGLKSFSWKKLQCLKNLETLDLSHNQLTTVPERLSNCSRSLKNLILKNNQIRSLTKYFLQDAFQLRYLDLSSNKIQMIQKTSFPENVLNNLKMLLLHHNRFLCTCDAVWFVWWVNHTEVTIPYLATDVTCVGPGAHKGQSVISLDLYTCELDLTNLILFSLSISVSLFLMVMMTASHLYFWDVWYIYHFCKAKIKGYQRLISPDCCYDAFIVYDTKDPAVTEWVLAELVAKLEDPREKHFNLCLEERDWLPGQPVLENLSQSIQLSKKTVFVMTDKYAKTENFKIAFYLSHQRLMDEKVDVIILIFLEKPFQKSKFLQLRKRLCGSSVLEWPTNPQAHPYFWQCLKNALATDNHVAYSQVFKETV
# Summary of the method: as §1
# [1] = Homo sapiens, THP-1, IL-1β production, human, read-out: NLRP3 hILIB EC50
# [2] = Homo sapiens, THP-1, IL-1β production, human cells, read-out: NLRP3 hILIB EC50
# [3] = Homo sapiens, THP-1, read-out: NLRP3 hILIB EC50
SMILES,EC50 (TLR8; activity range class) [µM],EC50 (THP-1 cells; [1]) [µM],EC50 (TLR7; activity range class) [µM],EC50 (TLR8; activity range) [µM],EC50 (THP-1 cells; [2]) [µM],EC50 (TLR7; activity range) [µM],EC50 (THP-1 cells; [3]) [µM],"EC50 (THP-1 cells; IL-1β production, human, read-out: NLRP3 hILIB EC50) [µM]"
Cc1nccc(C(=O)NCCn2cc3c(n2)c(N)nc2cc(-c4cc[nH]n4)ccc23)n1 [Example 50],> 100,1.43,> 100,,,,,
Nc1nc2cc(-c3cc[nH]n3)ccc2c2nn(C3CCOC3)cc12 (racemic) [Example 237],> 100,0.09,> 100,,,,,
CCOCC(=O)NC(C)Cn1cc2c(N)nc3cc(-c4ccn[nH]4)ccc3c2n1 (stereo not drawn) [Example 298],> 100,4.32,> 100,,,,,
CNC(=O)C(C)n1cc2c(N)nc3cc(-c4ccn[nH]4)ccc3c2n1 (stereo not drawn) [Example 560],,,,> 100,0.36,> 100,,
COCC(O)Cn1cc2c(N)nc3cc(-c4cc[nH]n4)ccc3c2n1 (stereo not drawn) [Example 307],> 100,0.43,> 100,,,,,
CC(C)NC(=O)C(C)Cn1cc2c(N)nc3cc(-c4cc[nH]n4)ccc3c2n1 (stereo not drawn) [Example 614],,,,> 100,11.6,> 100,,
"CC(CO)n1cc2c(N)nc3cc(-c4ccn[nH]4)ccc3c2n1 (stereo not drawn) [Example 253, 2-[4-amino-7-(1H-pyrazol-5-yl)-2H-pyrazolo[4,3-c]quinolin-2-yl]propan-1-ol]",> 100,,> 100,,,,0.3,
Nc1nc2cc(-c3cc[nH]n3)ccc2c2c1cnn2CCOCCO [Example 233],> 100,1.44,> 100,,,,,
Nc1nc2cc(-c3cc[nH]n3)ccc2c2nn(CCF)cc12 [Example 321],> 100,0.19,> 100,,,,,
"Nc1nc2cc(-c3cc[nH]n3)ccc2c2nn(C3COCC3O)cc12 (single isomer, unassigned) [Example 325]",> 100,,> 100,,,,,1.49
N#C[C@H]1CCN(C(=O)Cn2cc3c(n2)c(N)nc2cc(-c4cc[nH]n4)ccc23)C1 [Example 540],,,,> 100,3.13,> 100,,
CC(C(=O)NCc1ccccn1)n1cc2c(N)nc3cc(-c4ccn[nH]4)ccc3c2n1 (stereo not drawn) [Example 563],,,,> 100,9.21,> 100,,
"CCC(=O)NCCc1cc2c(N)nc3cc(-c4ccn[nH]4)ccc3c2[nH]1 [Example 154, N-{2-[4-amino-7-(1H-pyrazol-5-yl)-1H-pyrrolo[3,2-c]quinolin-2-yl]ethyl}propanamide]",> 100,1,> 100,,,,,
Nc1nc2cc(-c3cc[nH]n3)ccc2c2cn(C[C@@H](O)CO)nc12 [Example 398],,,,> 100,1.55,> 100,,
"Nc1nc2cc(-c3cc[nH]n3)ccc2c2cn(CCCNC(=O)c3ccccc3)nc12 [Example 123, N-{3-[4-amino-7-(1H-pyrazol-3-yl)-2H-pyrazolo[3,4-c]quinolin-2-yl]propyl}benzamide]",> 100,,> 100,,,,9.02,
